According to patent US9822082B2, “Diaminotriazine derivatives as herbicides” (BASF SE, priority 2014, dated 2017):

Legend:
Assay in all cases: pre-emergence greenhouse herbicidal test
Type in all cases: in vivo
[1] = system: ABUTH (Abutilon theophrasti); settings: pre-emergence method, application rate 0.500 kg/ha, scale from 0 to 100
Text: (§1) The seeds of the test plants were sown separately for each species. For the pre-emergence treatment, the active ingredients, which had been suspended or emulsified in water, were applied directly after sowing by means of finely distributing nozzles. The containers were irrigated gently to promote germination and growth and subsequently covered with transparent plastic hoods until the plants had rooted. This cover caused uniform germination of the test plants, unless this had been impaired by the active ingredients. Depending on the species, the plants were kept at 10-25° C. or 20-35° C., respectively. The test period extended over 2 to 4 weeks. During this time, the plants were tended, and their response to the individual treatments was evaluated. Evaluation was carried out using a scale from 0 to 100. 100 means no emergence of the plants, or complete destruction of at least the aerial moieties, and 0 means no damage, or normal course of growth. A moderate herbicidal activity is given at values of at least 60, a good herbicidal activity is given at values of at least 70, and a very good herbicidal activity is given at values of at least 85. The plants used in the greenhouse experiments were of the following species: [table]

[2] = system: AMARE (Amaranthus retroflexus); settings: pre-emergence method, scale from 0 to 100
Text: as §1

[3] = system: SETFA (Setaria faberi); settings: pre-emergence method, scale from 0 to 100
Text: as §1

[4] = system: ECHCG (Echinocloa crus-galli); settings: pre-emergence method, application rate 0.250 kg/ha, scale from 0 to 100
Text: as §1

COC1(c2nc(N)nc(Nc3c(F)c(F)cc(F)c3F)n2)CCC1 [Example 1, 6-(1-methoxycyclobutyl)-N4-(2,3,5,6-tetrafluorophenyl)-1,3,5-triazine-2,4-diamine]
herbicidal activity against ABUTH [1]: very good herbicidal activity (a very good herbicidal activity is given at values of at least 85)
herbicidal activity against AMARE ([2]; application rate 0.500 kg/ha): very good herbicidal activity (a very good herbicidal activity is given at values of at least 85)
herbicidal activity against SETFA ([3]; application rate 0.500 kg/ha): very good herbicidal activity (a very good herbicidal activity is given at values of at least 85)

COC1(c2nc(N)nc(Nc3c(F)c(F)cc(F)c3F)n2)CCCC1 [Example 2, 6-(1-methoxycyclopentyl)-N2-(2,3,5,6-tetrafluorophenyl)-1,3,5-triazine-2,4-diamine]
herbicidal activity against ABUTH [1]: very good herbicidal activity (a very good herbicidal activity is given at values of at least 85)
herbicidal activity against AMARE ([2]; application rate 0.500 kg/ha): very good herbicidal activity (a very good herbicidal activity is given at values of at least 85)
herbicidal activity against SETFA ([3]; application rate 0.500 kg/ha): very good herbicidal activity (a very good herbicidal activity is given at values of at least 85)

COC1(c2nc(N)nc(Nc3c(F)c(F)cc(F)c3F)n2)CCCCC1 [Example 3, 6-(1-methoxycyclohexyl)-N2-(2,3,5,6-tetrafluorophenyl)-1,3,5-triazine-2,4-diamine]
herbicidal activity against AMARE ([2]; application rate 0.250 kg/ha): very good herbicidal activity (a very good herbicidal activity is given at values of at least 85)
herbicidal activity against ECHCG [4]: very good herbicidal activity (a very good herbicidal activity is given at values of at least 85)
herbicidal activity against SETFA ([3]; application rate 0.250 kg/ha): very good herbicidal activity (a very good herbicidal activity is given at values of at least 85)
